Measurements as given in patent publication US12618096B2, “Rapid screen for antibiotic resistance and treatment regimen” (priority 2020, dated 2026).

Columns and labels:
Type in all cases: cell-based
[1] = test system: A. baumannii ATCC 17978 ColR; test: Resistance profile of bacterial strain
[2] = test system: P. aeruginosa PAO1; test: Resistance profile of bacterial strain
[3] = test system: A. baumannii NCTC 10303; test: Resistance profile of bacterial strain
[4] = test system: A. baumannii ATCC 17978; test: Resistance profile of bacterial strain
[5] = test system: A. baumannii NCTC 13302; test: Resistance profile of bacterial strain
[6] = test system: Klebsiella pneumoniae (NCTC 13368); test: Bacterial impedance flow cytometry of antimicrobial peptides; conditions: at the concentrations tested
Procedure: The method for determining the efficacy of different membrane penetrating peptide antimicrobials is essentially the same as for Example 1. Briefly, colonies are picked from plate carrying bacteria from a clinical sample (e.g. a urine sample from suspected UTI) into Tryptone soy broth (TSB) and incubated for 30 minutes prior to addition of the membrane penetrating peptide antimicrobial preparation. The incubation is typically carried out at 37° C. with shaking. […] The concentrations are selected to span the minimum inhibitory concentration of the two strains, as might be used clinically for an antimicrobial breakpoint determination. Optionally, the bacterial impedance flow cytometry method may be used to generate a measurement of the minimum inhibitory concentration or a fixed concentration is used on the basis of a resistant/susceptible breakpoint. The sample is incubated at 37° C. for 30 or 60 minutes in a static incubator at 37° C. The population at each timepoint is analysed using bacterial impedance flow cytometry and the data collected and analysed to measure both the viable cell number and any migration of the cell population out of a contour enclosing a percentage of a control or untreated population of the same species.
The bacterial impedance of the population was measured. […]

## Colistin
[1]
  Resistance profile: Colistin-Resistant Ciprofloxacin-Resistant;
[2]
  Resistance profile: Sensitive
[3]
  Resistance profile: Sensitive
[4]
  Resistance profile: Sensitive
[5]
  Resistance profile: Sensitive

## O=C(O)c1cn(C2CC2)c2cc(N3CCNCC3)c(F)cc2c1=O [Ciprofloxacin]
[1]
  Resistance profile: Colistin-Resistant Ciprofloxacin-Resistant;
[2]
  Resistance profile: Resistant
[3]
  Resistance profile: Resistant
[4]
  Resistance profile: Resistant
[5]
  Resistance profile: Resistant

## CC[C@H](C)[C@H](NC(=O)CN)C(=O)NCC(=O)N[C@@H](C)C(=O)N[C@H](C(=O)N[C@@H](CC(C)C)C(=O)N[C@@H](CCCCN)C(=O)N[C@H](C(=O)N[C@@H](CC(C)C)C(=O)N[C@H](C(=O)N[C@H](C(=O)NCC(=O)N[C@@H](CC(C)C)C(=O)N1CCC[C@H]1C(=O)N[C@@H](C)C(=O)N[C@@H](CC(C)C)C(=O)N[C@H](C(=O)N[C@@H](CO)C(=O)N[C@@H](Cc1c[nH]c2ccccc12)C(=O)N[C@H](C(=O)N[C@@H](CCCCN)C(=O)N[C@@H](CCCNC(=N)N)C(=O)N[C@@H](CCCCN)C(=O)N[C@@H](CCCNC(=N)N)C(=O)N[C@@H](CCC(N)=O)C(=O)N[C@@H](CCC(N)=O)C(N)=O)[C@@H](C)CC)[C@@H](C)CC)[C@@H](C)O)[C@@H](C)O)C(C)C)C(C)C [melittin]
[6]
  Susceptibility of NCTC 13368 relative to NCTC 12923: lower susceptibility

## Gentamicin
[1]
  Resistance profile: Resistant
[2]
  Resistance profile: Resistant
[3]
  Resistance profile: resistant
[4]
  Resistance profile: Resistant
[5]
  Resistance profile: Gentamicin- Resistant; Imipenem -Resistant;

## Piperacillin/tazobactam
[1]
  Resistance profile: Piperacillin/tazobactam -Sensitive
[2]
  Resistance profile: Piperacillin/tazobactam -Sensitive
[3]
  Resistance profile: Piperacillin/tazobactam -sensitive
[4]
  Resistance profile: Piperacillin/tazobactam -Sensitive
[5]
  Resistance profile: Piperacillin/tazobactam -Resistant
